Test results from patent US7074447B2 (Laboratories Miret, S.A., priority 2001, dated 2006).

How the values were obtained:
Format in all cases: cell-based
[1] = tested on: Citrobacter intermedium (CECT 401); experiment: minimum inhibition concentration and Kull synergy index of LAE / potassium sorbate; conditions: for SI, synergy index: <1 synergism, 1 addition, >1 antagonism
Protocol: (§1) The invention is now explained by a number of examples. In these examples LAE and sorbate alone and in a number of different combinations have been investigated against a number of bacterial preparations. For the analysis usually an internal method was used. Conditions and medium were Mueller Hinton broth (pH 7.4) or (pH 5.0) for bacteria, Sabouraud broth (pH 5.8) for yeast and Sabouraud medium for moulds. The interaction of the two components of the antimicrobial mixture is calculated according to the method described by Kull et al. (Kull […]. and Mayer R. L., Applied Microbiology, 1961; 6:538-541). According to this method the so-called synergy index is calculated according to the following formula: Synergy index […]. […] The same method was used as described for example 1. […] Again the effects of the components alone and in combination have been calculated using the same method as described at Example 1.

[2] = tested on: Cladosporium cladosporioides (ATCC 16022); experiment: as above; conditions: for SI, synergy index: <1 synergism, 1 addition, >1 antagonism
Protocol: as §1

[3] = tested on: Enterobacter aerogenes (ATCC 13048); experiment: as above; conditions: for SI, synergy index: <1 synergism, 1 addition, >1 antagonism
Protocol: as §1

[4] = tested on: Escherichia coli (ATCC 8739); experiment: as above; conditions: for SI, synergy index: <1 synergism, 1 addition, >1 antagonism
Protocol: as §1

[5] = tested on: Penicillium camemberti (CECT 2267); experiment: as above; conditions: for SI, synergy index: <1 synergism, 1 addition, >1 antagonism
Protocol: as §1

[6] = tested on: Candida albicans (ATCC 10231); experiment: as above; conditions: for SI, synergy index: <1 synergism, 1 addition, >1 antagonism
Protocol: as §1, with “Conditions and medium were Mueller Hinton broth (pH 7.4) or (pH 5.0) for bacteria, Sabouraud broth (pH 5.8) for yeast and Sabouraud medium for moulds.” left out

[7] = tested on: Gram-Positive Bacteria, Gram-Negative Bacteria, Moulds and Yeasts; experiment: activity of LAE against listed microorganisms; conditions: strains listed in b7
Excerpt: • Arthrobacter oxydans ATCC 8010 • Bacillus cereus var mycoide ATCC 11778 • Bacillus subtilis ATCC 6633 • Bacillus megaterium CECT 44 • Clostridium perfringens ATCC 77454 • Clostridium perfringens CECT 486 • Listeria monocytogenes ATCC 7644 • Staphylococcus aureus ATCC 6538 • Micrococcus luteus ATCC 9631 • Lactobacillus delbrueckii ssp lactis CECT 372 Gram-Negative Bacteria • Alcaligenes faecalis ATCC 8750 • Bordetella bronchiseptica ATCC 4617 • Citrobacter freundii ATCC 22636 • Citrobacter intermedium CECT 401 • Enterobacter aerogenes CECT 689 • Escherichia coli ATCC 8739 • Escherichia coli 0157H7 • Klebsiella pneumoniae var pneumoniae CECT 178 • Proteus mirabilis CECT 170 • Pseudomonas aeruginosa ATCC 9027 • Salmonella typhimurium ATCC16028 • Serratia marcenses CECT 274 • Mycobacterium phlei ATCC 41423 Moulds and Yeasts • Aspergillus niger ATCC14604 • Aureobasidium pullulans ATCC 9348 • Cladosporium cladosporioides ATCC 16022 • Gliocadium virens ATCC 4645 • Chaetonium globosum ATCC 6205 • Penicillium chrysogenum CECT 2802 • Penicillium funiculosum CECT 2914 • Penicillium camemberti CECT 2267 • Candida albicans ATCC 10231 • Rhodotorula rubra CECT 1158 • Saccharomyces cerevisiae ATCC 9763

CCCCCCCCCCCC(=O)N[C@@H](CCCNC(=N)N)C(=O)OCC.Cl [LAE, L-arginine, N^α-lauroyl-ethylester monohydrochloride]
58.5: QLAE, minimum inhibition concentration of LAE as single antimicrobial ([2]; pH 5.0) | Qlae, minimum inhibition concentration of LAE in the mixture ([2]; pH 5.0) | QLAE, minimum inhibition concentration of LAE as single antimicrobial ([5]; pH 5.0) | Qlae, minimum inhibition concentration of LAE in the mixture ([5]; pH 5.0)
0.00: Qs/QS ([1]; pH 5.0) | Qs/QS ([1]; pH 7.4, aqueous solutions) | Qs/QS ([2]; pH 5.0) | Qs/QS ([2]; pH 7.4, aqueous solutions) | Qs/QS ([3]; pH 5.0) | Qs/QS ([3]; pH 7.4, aqueous solutions) | Qs/QS ([4]; pH 5.0) | Qs/QS ([4]; pH 7.4, aqueous solutions) | Qs/QS ([5]; pH 5.0) | Qs/QS ([5]; pH 7.4, aqueous solutions) | Qs/QS ([6]; pH 5.0) | Qs, minimum inhibition concentration of potassium sorbate in the mixture ([6]; pH 7.4, aqueous solutions) | Qs/QS ([6]; pH 7.4, aqueous solutions)
25.6: QLAE, minimum inhibition concentration of LAE as single antimicrobial ([1]; pH 7.4, aqueous solutions) | Qlae, minimum inhibition concentration of LAE in the mixture ([1]; pH 7.4, aqueous solutions) | QLAE, minimum inhibition concentration of LAE as single antimicrobial ([2]; pH 7.4, aqueous solutions) | Qlae, minimum inhibition concentration of LAE in the mixture ([2]; pH 7.4, aqueous solutions) | QLAE, minimum inhibition concentration of LAE as single antimicrobial ([4]; pH 7.4, aqueous solutions) | Qlae, minimum inhibition concentration of LAE in the mixture ([4]; pH 7.4, aqueous solutions)
activity: activity against the listed microorganisms [7]
12.8: QLAE, minimum inhibition concentration of LAE as single antimicrobial ([1]; pH 5.0) | Qlae, minimum inhibition concentration of LAE in the mixture ([1]; pH 5.0)
21.5: QLAE, minimum inhibition concentration of LAE as single antimicrobial ([3]; pH 5.0) | Qlae, minimum inhibition concentration of LAE in the mixture ([3]; pH 5.0) | QLAE, minimum inhibition concentration of LAE as single antimicrobial ([4]; pH 5.0) | Qlae, minimum inhibition concentration of LAE in the mixture ([4]; pH 5.0)
1.00: Qlae/QLAE ([1]; pH 5.0) | SI, synergy index ([1]; pH 5.0) | Qlae/QLAE ([1]; pH 7.4, aqueous solutions) | SI, synergy index ([1]; pH 7.4, aqueous solutions) | Qlae/QLAE ([2]; pH 5.0) | SI, synergy index ([2]; pH 5.0) | Qlae/QLAE ([2]; pH 7.4, aqueous solutions) | SI, synergy index ([2]; pH 7.4, aqueous solutions) | Qlae/QLAE ([3]; pH 5.0) | SI, synergy index ([3]; pH 5.0) | SI, synergy index ([3]; pH 7.4, aqueous solutions) | Qlae/QLAE ([4]; pH 5.0) | SI, synergy index ([4]; pH 5.0) | Qlae/QLAE ([4]; pH 7.4, aqueous solutions) | SI, synergy index ([4]; pH 7.4, aqueous solutions) | Qlae/QLAE ([5]; pH 5.0) | SI, synergy index ([5]; pH 5.0) | Qlae/QLAE ([5]; pH 7.4, aqueous solutions) | SI, synergy index ([5]; pH 7.4, aqueous solutions) | Qlae/QLAE ([6]; pH 5.0) | SI, synergy index ([6]; pH 5.0) | Qlae/QLAE ([6]; pH 7.4, aqueous solutions) | SI, synergy index ([6]; pH 7.4, aqueous solutions)
29.3: QLAE, minimum inhibition concentration of LAE as single antimicrobial ([6]; pH 5.0) | Qlae, minimum inhibition concentration of LAE in the mixture ([6]; pH 5.0)
25.60: QLAE, minimum inhibition concentration of LAE as single antimicrobial ([6]; pH 7.4, aqueous solutions) | Qlae, minimum inhibition concentration of LAE in the mixture ([6]; pH 7.4, aqueous solutions)
0: Qs, minimum inhibition concentration of potassium sorbate in the mixture ([1]; pH 5.0) | Qs, minimum inhibition concentration of potassium sorbate in the mixture ([1]; pH 7.4, aqueous solutions) | Qs, minimum inhibition concentration of potassium sorbate in the mixture ([2]; pH 5.0) | Qs, minimum inhibition concentration of potassium sorbate in the mixture ([2]; pH 7.4, aqueous solutions) | Qs, minimum inhibition concentration of potassium sorbate in the mixture ([3]; pH 5.0) | Qs, minimum inhibition concentration of potassium sorbate in the mixture ([3]; pH 7.4, aqueous solutions) | Qs, minimum inhibition concentration of potassium sorbate in the mixture ([4]; pH 5.0) | Qs, minimum inhibition concentration of potassium sorbate in the mixture ([4]; pH 7.4, aqueous solutions) | Qs, minimum inhibition concentration of potassium sorbate in the mixture ([5]; pH 5.0) | Qs, minimum inhibition concentration of potassium sorbate in the mixture ([5]; pH 7.4, aqueous solutions) | Qs, minimum inhibition concentration of potassium sorbate in the mixture ([6]; pH 5.0)
68.2: Qlae, minimum inhibition concentration of LAE in the mixture ([3]; pH 7.4, aqueous solutions) | QLAE, minimum inhibition concentration of LAE as single antimicrobial ([5]; pH 7.4, aqueous solutions) | Qlae, minimum inhibition concentration of LAE in the mixture ([5]; pH 7.4, aqueous solutions)
